Measured values: patent US11331338B2, “Hydrogen sulfide releasing polymer compounds” (CROMA-PHARMA GESELLSCHAFT M.B.H., priority 2016, dated 2022)

Experiments:
[1] = Olfactory test for H2S liberation; settings: dissolved in acetone/phosphate buffer, excess L-cysteine
[2] = Detection of released H2S by embrowning Pb-acetate paper after thiol addition; settings: excess amounts of L-cysteine or cysteamine
Protocol: 850 mg polymer was obtained as a white, fibrous product with an estimated molecular weight of 270 kDa (based on the starting material) and a degree of modification with H2S releasing perthiol structures of […] polymer. This corresponds to a conversion rate of 98% of the thiol moieties of the polymer used as starting material. […] Emerging H2S was detected by embrowning Pb-acetate paper.
This finding was later confirmed by detecting H2S release after addition of excess amounts of L-cysteine or cysteamine to 4-amino-N-(benzoylthio)benzamide via embrowning Pb-acetate paper.

[3] = tested on: immortalized human microvascular endothelial cells (HMEC-1); assay: Cell compatibility / proliferation (WST-1); format: cell-based; settings: HMEC-1 compared with the other cell types
Source text: In order to study cell compatibility, especially the effect of proliferation, the H2S releasing hyaluronic acid derivative according to FIG. 1A (s. above,) was investigated in comparison with unmodified HA (sodium salt of hyaluronic acid, “NA HA”) and an […] thiolated hyaluronic acid (“Thiomer CAPPY”). As further control, the well established commercially available H2S donor N-(benzoylthio)benzamide (Donor 5a is NSHD1, a small molecule with a thiol activation mechanism) was included in the experiments.
Three types of skin cells were used as models: primary human dermal fibroblasts (dFb), the immortalized line of human microvascular endothelial cells (HMEC-1) and the keratinocyte cell line HaCat. The cells were cultured in their appropriate medium. Synthetic medium Fibrolife with supplements and gentamycin was used for dFb, EBM+supplements was used for HMEC-1 and DMEM with 10% FCS and 1% CellShield was used for HaCat cells. Furthermore, 3 mM cysteine was added to all conditions investigated. […] Cells were seeded and grown at least overnight before medium was changed and the HA components were added according to the agreed protocol. […] Cell proliferation was measured indicated by using a WST-1-based colorimetric detection reagent according to manufacturers' protocol with fresh medium without addition of any HA-derivative. […]

SMILES | H2S liberation, olfactory test [1] | H2S release detected by Pb-acetate paper [2] | sensitivity of endothelial cells to H2S [3]
Nc1ccc(C(=O)NSC(=O)c2ccccc2)cc1 [4-amino-N-(benzoylthio)benzamide] | indicated H2S liberation | H2S release | 
O=C(NSC(=O)c1ccccc1)c1ccccc1 [Donor 5a, N-(benzoylthio)benzamide] |  |  | most sensitive
